Test results as given in patent publication US9944589B2, “Cycloproplyamine derivatives useful as inhibitors of histone demethylases KDM1A” (Istituto Europeo de Oncologia S.r.L., priority 2012, dated 2018).
Structures can show the parent of a compound that is named as a salt.

What was measured:
Human recombinant MAO B = biological target: T1, Human recombinant MAO B (Homo sapiens, UniProt P27338); details: ratio of IC50 against MAO-B over IC50 for LSD1
T1 sequence (P27338 1-520): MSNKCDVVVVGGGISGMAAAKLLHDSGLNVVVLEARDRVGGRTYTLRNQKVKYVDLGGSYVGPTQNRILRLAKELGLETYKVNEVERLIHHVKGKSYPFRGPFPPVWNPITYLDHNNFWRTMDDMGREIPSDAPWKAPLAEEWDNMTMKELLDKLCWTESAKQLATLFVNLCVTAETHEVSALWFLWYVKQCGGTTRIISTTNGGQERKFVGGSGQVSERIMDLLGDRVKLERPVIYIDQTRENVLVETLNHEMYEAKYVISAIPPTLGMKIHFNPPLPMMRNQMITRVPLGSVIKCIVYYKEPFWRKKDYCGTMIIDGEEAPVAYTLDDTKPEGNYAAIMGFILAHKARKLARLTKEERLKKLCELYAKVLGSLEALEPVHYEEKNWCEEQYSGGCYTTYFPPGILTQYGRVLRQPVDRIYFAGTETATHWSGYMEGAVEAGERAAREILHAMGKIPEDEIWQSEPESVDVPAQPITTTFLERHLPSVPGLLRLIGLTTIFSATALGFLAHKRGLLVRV
Experimental: The MAO-Glo Assay from Promega (cat. V1402, Promega, Madison, Wis.) was used to measure the effect of inhibitors on MAO-A and MAO-B activity.
After 30 minutes of incubation the reaction was stopped with the Promega detection reagent. The experiments were carried out in duplicate. IC50 was calculated using GraphPad Prism version 4.0 (GraphPad Software, San Diego, Calif.).

[1] = tested on: Acute promyelocytic leukemia NB4 cells; assay: Cell growth (CellTiter-Fluor cell viability assay); assay type: cell-based; details: Homo sapiens, NB-4, 48 h, range classes, read-out: IC50 [μM], cell growth inhibitory assay
In short: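 Exponentially growing NB4 cells exposed to a range of inhibitor concentrations for 48 h. Viability then read as live-cell protease fluorescence (ex 360/em 535 nm) after ≥90 min reagent incubation at 37 °C; IC50 calculated from the data.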

[2] = tested on: mouse model of leukemia resembling the human acute promyelocytic leukemia; assay: In vivo activity, mouse leukemia model, splenomegaly as read out of blast infiltration; details: orally, 30 mg/kg, 4 days, leukemic mice
Experimental: The in vivo activity was conducted on a mouse model as characterized by Minucci et al. (Minucci S. et al. Blood 2002, 100, 2989-2995) The model is characterized by the development of leukemia, resembling the human acute promyelocytic leukemia, which is associated to a blast infiltration of several organs as bone marrow, liver and particularly of the spleen. In the conducted experiment, splenomegaly was studied as read out of blast infiltration and development of leukemia.
For the in vivo analysis, one million of leukemic cells (obtained from 129SvEv mice, Minucci S. et al. Blood 2002, 100, 2989-2995, obtained from Taconic, One Hudson City Centre Hudson, N.Y. (USA)) were injected intravenously into non-irradiated syngenic recipients. Treatment started once blast cells are detected in the recipients' peripheral blood (9 days after injection). The compounds were intravenously or orally administered at doses of 10 and 30 mg/kg for 4 days. […] after blast injection the mice were sacrificed and the spleens recovered. The weights of the spleen of the mice of the vehicle groups as well as of the treated groups were registered and used as evidence of effect on blast infiltration. […]
Compound A-36 administered orally at 30 mg/kg determined a reduction of the spleen weight of around 50% compared to mice treated with the vehicle (40% PEG-400, 60% aqueous solution containing 5% glucose) alone.

[3] = biological target: T2, human recombinant KDM1A (LSD1)/CoRest (Homo sapiens, UniProt O60341); assay: Assay of enzyme inhibition of KDM1A (LSD1), Amplex UltraRed/peroxidase coupled; assay type: biochemical; details: 15 min preincubation, 4.5 μM mono-methylated H3-K4 peptide, range classes, read-out: IC50 [μM], KDM1A inhibition assay
T2 construct: made in house; host or cells: E. coli
In short: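 KDM1A/CoRest complex with inhibitor (e.g. 0–100 μM) and Amplex UltraRed/peroxidase preincubated 15 min at RT. Substrate: mono-methylated H3K4 21-mer peptide in 50 mM Tris pH 8, 0.05 mg/ml BSA, aerobic. IC50 from duplicates run twice, background-corrected.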

Structure (SMILES) | IC50 (MAO-B)/IC50 (LSD1) (Human recombinant MAO B) | IC50 [1] [µM] | reduction of the spleen weight compared to mice treated with the vehicle [2] | IC50 [3] [µM]
CC[C@@]1(N)C[C@H]1c1ccc(NC(=O)c2ccc(-c3ccccc3)cc2)cc1 (relative stereo) [Example A-36, N-[4-[(trans)-2-amino-2-ethyl-cyclopropyl]phenyl]-4-phenyl-benzamide hydrochloride] | 16 | ≤ 10 | around 50% | –
CC[C@]1(N)C[C@@H]1c1ccc(NC(=O)c2ccccc2)cc1.Cl (relative stereo) [Example A-47, N-[4-[trans-2-amino-2-ethyl-cyclopropyl]phenyl]benzamide hydrochloride] | >100 | – | – | < 0.1
CC[C@@]1(N)C[C@H]1c1ccc(NC(=O)c2ccc(-c3ccoc3)cc2)cc1 (relative stereo) [Example A-78, N-[4-[trans-2-amino-2-ethyl-cyclopropyl]phenyl]-4-(3-furyl) benzamide hydrochloride] | 60 | ≤ 10 | – | < 0.1
CC[C@@]1(N)C[C@H]1c1ccc(NC(=O)c2cccc(N3CCOC3=O)c2)cc1 (relative stereo) [Example A-98, N-[4-[trans-2-amino-2-ethyl-cyclopropyl]phenyl]-3-(2-oxooazolidin-3-yl)benzamide 2,2,2-trifluoroacetic acid] | >100 | ≤ 10 | – | < 0.1
N[C@]1(CCc2ccccc2)C[C@H]1c1ccc(NC(=O)c2ccccc2)cc1 (relative stereo) [Example A-114, N-[4-trans-2-amino-2-phenethyl-cyclopropyl)phenyl] benzamide hydrochloride] | >100 | ≤ 10 | – | < 0.1
CN1CCN(c2ccc(C(=O)Nc3ccc([C@@H]4C[C@]4(N)CCc4ccccc4)cc3)cc2)CC1 (relative stereo) [Example A-116, N-[4-(trans-2-amino-2-phenethyl-cyclopropyl)phenyl]-4-(4-methylpiperazin-1-yl)benzamide dihydrochloride] | >100 | ≤ 10 | – | < 0.1
CC[C@@]1(N)C[C@H]1c1cccc(-n2cc(-c3ccccc3)nn2)c1 (relative stereo) [Example A-122, trans-1-ethyl-2-[3-(4-phenyltriazol-1-yl)phenyl]cyclopropan amine hydrochloride] | – | 10 to 50 | – | 0.1 to 1
N[C@]1(Cc2ccc3ccccc3c2)C[C@H]1c1ccc(-n2cc(-c3ccccc3)nn2)cc1 (relative stereo) [Example A-124, trans-1-(2-naphthylmethyl)-2-[4-(4-phenyltriazol-1-yl)phenyl]cyclopropan amine hydrochloride] | – | 10 to 50 | – | 0.1 to 1
N[C@]1(CNCc2ccccc2)C[C@H]1c1ccccc1 (relative stereo) [Example B-3, trans-1-(benzylamino)methyl-2-phenyl-cyclopropanamine dihydrochloride] | – | 50 to 100 | – | 1 to 5
CN1CCN(C(=O)CN[C@]2(Cc3ccc4ccccc4c3)C[C@H]2c2ccccc2)CC1 (relative stereo) [Example C-24, 1-(4-methylpiperazin-1-yl)-2-[[trans-1-(2-naphthylmethyl)-2-phenyl-cyclopropyl]amino]ethanone dihydrochloride] | – | 10 to 50 | – | 0.1 to 1
N[C@]1(c2ccc([N+](=O)[O-])cc2)C[C@H]1c1ccccc1 (relative stereo) [Example D-3, trans-1-(4-nitrophenyl)-2-phenyl-cyclopropanamine hydrochloride] | – | 10 to 50 | – | 0.1 to 1
N[C@]1(c2ccccc2)C[C@H]1c1ccc(Cl)cc1 (relative stereo) [Example D-4, trans-2-(4-chlorophenyl)-1-phenyl-cyclopropanamine hydrochloride] | – | 50 to 100 | – | 0.1 to 1
N[C@]1(c2ccccc2)C[C@H]1c1ccc(Br)cc1 (relative stereo) [Example D-5, trans-2-(4-bromophenyl)-1-phenyl-cyclopropanamine hydrochloride] | – | 10 to 50 | – | < 0.1
N[C@]1(Cc2ccc3ccccc3c2)C[C@H]1c1ccc(OCc2ccccc2)cc1 (stereo in doubt) [Example A-67, 2-(4-benzyloxyphenyl)-1-(2-naphthylmethyl) cyclopropanamine hydrochloride] | – | 10 to 50 | – | 0.1 to 1
N[C@]1(Cc2ccc3ccccc3c2)C[C@H]1c1ccc(NC(=O)c2ccccc2)cc1 [Example A-44, N-[4-[tyrans-2-amino-2-(2-naphthylmethyl)cyclopropyl]phenyl] benzamide hydrochloride] | – | ≤ 10 | – | < 0.1
